{"source": "patent US20240239804A1", "about": "“FUROINDAZOLE DERIVATIVES AS ANTAGONISTS OR INHIBITORS OF GPR84” (Bayer Aktiengesellschaft, priority 2021, published 2024)"}
{"biological_target": "T1, human GPR84 receptor (Homo sapiens, UniProt Q9NQS5)", "T1 construct": "frozen aliquots prepared by acCELLerate; host or cells: CHO-K1", "T1 sequence (Q9NQS5 whole entry)": "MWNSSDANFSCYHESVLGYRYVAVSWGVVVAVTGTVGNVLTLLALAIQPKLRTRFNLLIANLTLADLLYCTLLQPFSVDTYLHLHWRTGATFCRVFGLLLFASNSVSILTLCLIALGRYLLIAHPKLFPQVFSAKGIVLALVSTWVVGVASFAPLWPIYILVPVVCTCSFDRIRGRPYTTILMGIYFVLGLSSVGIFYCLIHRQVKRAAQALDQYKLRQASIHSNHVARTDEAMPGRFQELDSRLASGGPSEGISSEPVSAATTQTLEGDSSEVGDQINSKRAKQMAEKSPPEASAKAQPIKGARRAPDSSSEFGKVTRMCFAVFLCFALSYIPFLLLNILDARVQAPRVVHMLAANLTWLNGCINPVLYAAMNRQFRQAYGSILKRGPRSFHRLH", "experiment": "cAMP HTRF assay for identification of cellular GPR84 antagonists", "assay_type": "cell-based", "details": "CHO-K1 cells stably expressing human GPR84; Forskolin plus agonist 6-OAU; cAMP HTRF readout; average or median values", "text": "cAMP HTRF® Assay for Identification of Cellular GPR84 Antagonists\nBy using a Homogenous Time-Resolved Fluorescence (HTRF®) based assay (#62AM5PEJ, Cisbio, Condolet, France) the inhibition of the Gi-coupled GPR84 receptor can be detected. CHO-K1 cells stably expressing human GPR84 receptor (purchased from DiscoveRx, now Eurofins) were used and treated with Forskolin (F6886, Sigma, Germany) to stimulate membrane adenylyl cyclases and thereby unspecific cAMP formation. Activation of the Gi-coupled GPR84 by a natural or small molecule agonist (e.g. 6-n-octyl aminouracile, inhouse) results in inhibition of cellular cAMP formation which can be released again by antagonists to this receptor. Detection and quantification of cellular cAMP levels in this HTRF assay is achieved by interaction between a fluorescent cAMP tracer (cAMP-d2) and an Eu-cryptate labelled anti-cAMP antibody. Following excitation at 337 nm this pairing allows for the generation of a fluorescence resonance energy transfer (FRET) between the partners and results in FRET induced emissions at 665 nm and 620 nm, the latter representing background signal by Eu-cryptate labelled anti-cAMP antibody. Maximal signal is obtained in the absence of any cellular cAMP (no competition for the binding of the tracer to the antibody). Given the combination of the Gi coupling properties of GPR84 and the competitive nature of the detection system agonist treatment should result in an increase in the HTRF signal due to lowered cAMP levels. Any signal decrease in the presence of Forskolin, agonist and compound are indicative of antagonist mediated abrogation of GPR84 signalling.\nFor the assay, frozen aliquots of CHO-K1 cells expressing hGPR84 (prepared by acCELLerate, Hamburg, Germany) were thawed and a cell suspension (1.67E+06 cells/mL) in assay media (Ham's F12 Nutrient Mix, Thermo Fisher Scientific, Waltham, USA; 5% fetal calf serum, Biomol, Hamburg, Germany) containing cAMP-d2 (dilution 1:20, supplied with the kit #62AM5PEJ, Cisbio, Condolet, France) was prepared. After recovery of cells for 20 minutes at 37° C., 3 μL/well cell suspension including cAMP-d2 were added to a pre-dispensed assay plate (Greiner Bio-One, Kremsmuenster, Austria) containing 50 nl/well test compound in 100% DMSO or 100% DMSO as control. This was followed by a 30 minute incubation step at room temperature. The stimulation time was started by addition of 2 μL/well assay media containing 2.5×EC80 agonist 6-OAU and 2.5×EC90 Forskolin (negative control: 2.5×EC90 Forskolin in assay media) and was continued for 30 minutes at room temperature. The reaction was stopped by addition of 3 μL/well lysis buffer containing cAMP Eu-Cryptate antibody (dilution 1:20) (both supplied with the kit #62AM5PEJ, Cisbio, Condolet, France). To enable complete lysis, plates were incubated for 60 minutes at room temperature before measurement in an HTRF reader, e.g. a PHERAstar (BMG Labtech, Ortenberg, Germany).\nFrom the fluorescence emissions at 665 nm (FRET) and at 620 nm (background signal of Eu-cryptate) the ratio (emission at 665 nm divided by emission at 620 nm×10000) was calculated and the data were normalized (reaction without test compound, only 100% DMSO=0% inhibition; all other assay components except agonist=100% inhibition). For dose response testing on the same microtiter plate, compounds were tested at 11 different concentrations in the range of 20 μM to 0.07 nM (20 μM, 5.7 μM, 1.6 μM, 0.47 μM, 0.13 μM, 38 nM, 11 nM, 3.1 nM, 0.89 nM, 0.25 and 0.07 nM; dilution series prepared before the assay at the level of the 100-fold conc. stock solutions by serial 1:3.5 dilutions in 100% DMSO) in duplicate values for each concentration. IC50 values were calculated by 4-parameter fitting using a commercial software package (Genedata Screener, Basel, Switzerland).\nExamples were tested in selected biological assays one or more times. […]", "units": {"IC50": "µM"}}
{"smiles": "CC(=O)Nc1ccc(CNC(=O)c2oc3c(c2C)-c2nn(Cc4ccc(Cl)cc4)cc2CC3)cc1", "note": "[Example 43, N-[(4-acetamidophenyl)methyl]-2-[(4-chlorophenyl)methyl]-8-methyl-4,5-dihydro-2H-furo[2,3-g]indazole-7-carboxamide]", "IC50": 0.8}
{"smiles": "Cc1c(C(=O)NCc2cccn2C)oc2c1-c1nn(Cc3ccc(Cl)cc3)cc1CC2", "note": "[Example 44, 2-[(4-chlorophenyl)methyl]-8-methyl-N-[(1-methyl-1H-pyrrol-2-yl)methyl]-4,5-dihydro-2H-furo[2,3-g]indazole-7-carboxamide]", "IC50": 0.89}
{"smiles": "Cc1c(C(=O)NCc2ccncc2)oc2c1-c1nn(Cc3ccc(Cl)cc3)cc1CC2", "note": "[Example 45, 2-[(4-chlorophenyl)methyl]-8-methyl-N-[(pyridin-4-yl)methyl]-4,5-dihydro-2H-furo[2,3-g]indazole-7-carboxamide]", "IC50": 1.43}
{"smiles": "Cc1c(C(=O)NCc2ccnn2C)oc2c1-c1nn(Cc3ccc(Cl)cc3)cc1CC2", "note": "[Example 46, 2-[(4-chlorophenyl)methyl]-8-methyl-N-[(1-methyl-1H-pyrazol-5-yl)methyl]-4,5-dihydro-2H-furo[2,3-g]indazole-7-carboxamide]", "IC50": 1.65}
{"smiles": "Cc1c(C(=O)NCc2cnn(C)c2)oc2c1-c1nn(Cc3ccc(Cl)cc3)cc1CC2", "note": "[Example 47, 2-[(4-chlorophenyl)methyl]-8-methyl-N-[(1-methyl-1H-pyrazol-4-yl)methyl]-4,5-dihydro-2H-furo[2,3-g]indazole-7-carboxamide]", "IC50": 1.87}
{"smiles": "Cc1c(C(=O)NCC(N)=O)oc2c1-c1nn(Cc3ccc(Cl)cc3)cc1CC2", "note": "[Example 48, N-(2-amino-2-oxoethyl)-2-[(4-chlorophenyl)methyl]-8-methyl-4,5-dihydro-2H-furo[2,3-g]indazole-7-carboxamide]", "IC50": 2.13}
{"smiles": "Cc1c(C(=O)N2CC(Cc3ccccc3)C2)oc2c1-c1nn(Cc3ccc(Cl)cc3)cc1CC2", "note": "[Example 49, (3-benzylazetidin-1-yl){2-[(4-chlorophenyl)methyl]-8-methyl-4,5-dihydro-2H-furo[2,3-g]indazol-7-yl}methanone]", "IC50": 2.59}
{"smiles": "Cc1c(C(=O)NCc2cnn3ccccc23)oc2c1-c1nn(Cc3ccc(Cl)cc3)cc1CC2", "note": "[Example 50, 2-[(4-chlorophenyl)methyl]-8-methyl-N-[(pyrazolo[1,5-a]pyridin-3-yl)methyl]-4,5-dihydro-2H-furo[2,3-g]indazole-7-carboxamide]", "IC50": 2.69}
{"smiles": "Cc1c(C(=O)NCC2CC2)oc2c1-c1nn(Cc3ccc(Cl)cc3)cc1CC2", "note": "[Example 51, 2-[(4-chlorophenyl)methyl]-N-(cyclopropylmethyl)-8-methyl-4,5-dihydro-2H-furo[2,3-g]indazole-7-carboxamide]", "IC50": 2.72}
{"smiles": "Cc1c(C(=O)NCC2CCOCC2)oc2c1-c1nn(Cc3ccc(Cl)cc3)cc1CC2", "note": "[Example 52, 2-[(4-chlorophenyl)methyl]-8-methyl-N-[(oxan-4-yl)methyl]-4,5-dihydro-2H-furo[2,3-g]indazole-7-carboxamide]", "IC50": 2.96}
{"smiles": "Cc1c(C(=O)NCc2nccn2C)oc2c1-c1nn(Cc3ccc(Cl)cc3)cc1CC2", "note": "[Example 53, 2-[(4-chlorophenyl)methyl]-8-methyl-N-[(1-methyl-1H-imidazol-2-yl)methyl]-4,5-dihydro-2H-furo[2,3-g]indazole-7-carboxamide]", "IC50": 3.04}
{"smiles": "Cc1c(C(=O)NCc2cncn2C)oc2c1-c1nn(Cc3ccc(Cl)cc3)cc1CC2", "note": "[Example 54, 2-[(4-chlorophenyl)methyl]-8-methyl-N-[(1-methyl-1H-imidazol-5-yl)methyl]-4,5-dihydro-2H-furo[2,3-g]indazole-7-carboxamide]", "IC50": 3.39}
{"smiles": "Cc1c(C(=O)NCCN2CCOCC2)oc2c1-c1nn(Cc3ccc(Cl)cc3)cc1CC2", "note": "[Example 55, 2-[(4-chlorophenyl)methyl]-8-methyl-N-[2-(morpholin-4-yl)ethyl]-4,5-dihydro-2H-furo[2,3-g]indazole-7-carboxamide]", "IC50": 4.18}
{"smiles": "Cc1c(C(=O)NCCC(N)=O)oc2c1-c1nn(Cc3ccc(Cl)cc3)cc1CC2", "note": "[Example 56, N-(3-amino-3-oxopropyl)-2-[(4-chlorophenyl)methyl]-8-methyl-4,5-dihydro-2H-furo[2,3-g]indazole-7-carboxamide]", "IC50": 4.88}
{"smiles": "Cc1c(C(=O)NCCc2ccccc2)oc2c1-c1nn(Cc3ccc(Cl)cc3)cc1CC2", "note": "[Example 57, 2-[(4-chlorophenyl)methyl]-8-methyl-N-(2-phenylethyl)-4,5-dihydro-2H-furo[2,3-g]indazole-7-carboxamide]", "IC50": 5.04}
{"smiles": "Cc1c(C(=O)NCCO)oc2c1-c1nn(Cc3ccc(Cl)cc3)cc1CC2", "note": "[Example 58, 2-[(4-chlorophenyl)methyl]-N-(2-hydroxyethyl)-8-methyl-4,5-dihydro-2H-furo[2,3-g]indazole-7-carboxamide]", "IC50": 5.22}
{"smiles": "Cc1c(C(=O)NCC2CCS(=O)(=O)C2)oc2c1-c1nn(Cc3ccc(Cl)cc3)cc1CC2", "note": "(stereo not shown) [Example 59, 2-(4-chlorobenzyl)-N-[(1,1-dioxidotetrahydrothiophen-3-yl)methyl]-8-methyl-4,5-dihydro-2H-furo[2,3-g]indazole-7-carboxamide]", "IC50": 5.28}
{"smiles": "Cc1c(C(=O)NCC(C)(C)O)oc2c1-c1nn(Cc3ccc(Cl)cc3)cc1CC2", "note": "[Example 60, 2-[(4-chlorophenyl)methyl]-N-(2-hydroxy-2-methylpropyl)-8-methyl-4,5-dihydro-2H-furo[2,3-g]indazole-7-carboxamide]", "IC50": 5.64}
{"smiles": "Cc1c(C(=O)N2CCc3ccccc3C2)oc2c1-c1nn(Cc3ccc(Cl)cc3)cc1CC2", "note": "[Example 61, {2-[(4-chlorophenyl)methyl]-8-methyl-4,5-dihydro-2H-furo[2,3-g]indazol-7-yl}(3,4-dihydroisoquinolin-2(1H)-yl)methanone]", "IC50": 6.02}
{"smiles": "CC(=O)N1CCN(C(=O)c2oc3c(c2C)-c2nn(Cc4ccc(Cl)cc4)cc2CC3)CC1", "note": "[Example 62, 1-(4-{2-[(4-chlorophenyl)methyl]-8-methyl-4,5-dihydro-2H-furo[2,3-g]indazole-7-carbonyl}piperazin-1-yl)ethan-1-one]", "IC50": 6.1}
{"smiles": "Cc1c(C(=O)NCC[S+](C)[O-])oc2c1-c1nn(Cc3ccc(Cl)cc3)cc1CC2", "note": "(stereo not shown) [Example 63, 2-[(4-chlorophenyl)methyl]-NV-[2-(methanesulfinyl)ethyl]-8-methyl-4,5-dihydro-2H-furo[2,3-g]indazole-7-carboxamide]", "IC50": 6.15}
{"smiles": "Cc1c(C(=O)NCCCO)oc2c1-c1nn(Cc3ccc(Cl)cc3)cc1CC2", "note": "[Example 64, 2-[(4-chlorophenyl)methyl]-N-(3-hydroxypropyl)-8-methyl-4,5-dihydro-2H-furo[2,3-g]indazole-7-carboxamide]", "IC50": 6.68}
{"smiles": "Cc1c(C(=O)NCC(F)F)oc2c1-c1nn(Cc3ccc(Cl)cc3)cc1CC2", "note": "[Example 65, 2-[(4-chlorophenyl)methyl]-N-(2,2-difluoroethyl)-8-methyl-4,5-dihydro-2H-furo[2,3-g]indazole-7-carboxamide]", "IC50": 7.45}
{"smiles": "Cc1c(C(=O)N(C)Cc2ccncc2)oc2c1-c1nn(Cc3ccc(Cl)cc3)cc1CC2", "note": "[Example 66, 2-[(4-chlorophenyl)methyl]-/,8-dimethyl-N-[(pyridin-4-yl)methyl]-4,5-dihydro-2H-furo[2,3-g]indazole-7-carboxamide]", "IC50": 7.59}
{"smiles": "Cc1c(C(=O)N2CCN(S(C)(=O)=O)CC2)oc2c1-c1nn(Cc3ccc(Cl)cc3)cc1CC2", "note": "[Example 67, {2-[(4-chlorophenyl)methyl]-8-methyl-4,5-dihydro-2H-furo[2,3-g]indazol-7-yl}[4-(methanesulfonyl)piperazin-1-yl]methanone]", "IC50": 7.83}
